Counter-ions that a name gives are not always drawn.
Legend:
[1] = target: T1, α4β1 integrin (Jurkat T-cell adhesion to IL-1 stimulated endothelial cell monolayers) (Homo sapiens, UniProt P05556+P13612); assay: Jurkat-endothelial cell adhesion assay (Jurkat EC); format: cell-based; details: Jurkat cells on IL-1 stimulated human umbilical vein endothelial cells; read-out: JK/EC (Jurkat EC Assay IC50 value range)
T1 construct: a T-cell line, Jurkat, known to express the α4β1 integrin; host or cells: Jurkat T-cell line
In short: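 BCECF-AM-labelled Jurkat cells were mixed with compound, generally 100, 20, 5 and 1.25 μM, and added to HUVEC monolayers (passage ≤6) pre-stimulated 4 hr at 37° C with 0.1 ng/ml IL-1. After 5 min on ice and 20 min at 37° C, washed wells were read by fluorescence as % adhesion relative to no compound.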

[2] = target: T2, α4β1 integrin (Jurkat cell adhesion to immobilized CS-1 derived peptide CLHPGEILDVPST) (Homo sapiens, UniProt P05556+P13612); assay: Jurkat-CS-1 assay; format: cell-based; details: Jurkat cells on CS-1 peptide coated plates; read-out: JK/CS-1 (Jurkat CS-1 Assay IC50 value range)
T2 construct: 100 μl of Jurkat cells (2.5×10^6 cells/ml) in DMEM plus BSA; host or cells: Jurkat T-cell line
In short: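 CS-1 peptide was SPDP-crosslinked onto HSA-coated plates and blocked with BSA. Jurkat cells (2.5×10^6 cells/ml) in DMEM/BSA were mixed with compound, generally at 100, 20, 5 and 1.25 μM, and allowed to adhere for 1 hr at 37° C. Bound cells were fixed, stained with toluidine blue and quantified by OD590.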

T2 sequence (P13612 34-1032): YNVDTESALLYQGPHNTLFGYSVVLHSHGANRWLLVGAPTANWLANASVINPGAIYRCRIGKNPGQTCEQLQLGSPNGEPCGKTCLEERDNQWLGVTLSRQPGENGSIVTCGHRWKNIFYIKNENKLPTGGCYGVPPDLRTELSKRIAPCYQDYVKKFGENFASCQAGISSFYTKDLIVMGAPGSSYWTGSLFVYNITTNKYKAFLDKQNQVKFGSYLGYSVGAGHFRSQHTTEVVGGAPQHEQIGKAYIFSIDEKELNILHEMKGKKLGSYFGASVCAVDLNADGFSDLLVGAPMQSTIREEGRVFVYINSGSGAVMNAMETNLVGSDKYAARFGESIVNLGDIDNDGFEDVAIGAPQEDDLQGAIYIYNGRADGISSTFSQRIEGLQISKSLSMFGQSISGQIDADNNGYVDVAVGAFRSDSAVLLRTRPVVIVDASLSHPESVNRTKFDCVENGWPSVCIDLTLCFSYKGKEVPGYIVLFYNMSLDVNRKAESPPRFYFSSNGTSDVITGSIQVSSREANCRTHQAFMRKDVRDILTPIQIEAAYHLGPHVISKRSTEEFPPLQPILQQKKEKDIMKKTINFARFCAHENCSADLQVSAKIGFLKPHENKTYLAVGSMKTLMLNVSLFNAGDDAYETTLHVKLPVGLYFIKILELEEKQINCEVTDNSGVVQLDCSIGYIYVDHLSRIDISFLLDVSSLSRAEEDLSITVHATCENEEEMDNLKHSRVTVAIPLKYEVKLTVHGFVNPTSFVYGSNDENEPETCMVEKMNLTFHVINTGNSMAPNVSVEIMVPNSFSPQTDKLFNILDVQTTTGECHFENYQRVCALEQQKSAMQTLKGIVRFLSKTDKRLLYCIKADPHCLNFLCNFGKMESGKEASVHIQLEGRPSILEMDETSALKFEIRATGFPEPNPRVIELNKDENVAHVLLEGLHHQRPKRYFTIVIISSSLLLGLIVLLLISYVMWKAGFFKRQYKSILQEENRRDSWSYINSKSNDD
T2 sequence (P05556 21-798): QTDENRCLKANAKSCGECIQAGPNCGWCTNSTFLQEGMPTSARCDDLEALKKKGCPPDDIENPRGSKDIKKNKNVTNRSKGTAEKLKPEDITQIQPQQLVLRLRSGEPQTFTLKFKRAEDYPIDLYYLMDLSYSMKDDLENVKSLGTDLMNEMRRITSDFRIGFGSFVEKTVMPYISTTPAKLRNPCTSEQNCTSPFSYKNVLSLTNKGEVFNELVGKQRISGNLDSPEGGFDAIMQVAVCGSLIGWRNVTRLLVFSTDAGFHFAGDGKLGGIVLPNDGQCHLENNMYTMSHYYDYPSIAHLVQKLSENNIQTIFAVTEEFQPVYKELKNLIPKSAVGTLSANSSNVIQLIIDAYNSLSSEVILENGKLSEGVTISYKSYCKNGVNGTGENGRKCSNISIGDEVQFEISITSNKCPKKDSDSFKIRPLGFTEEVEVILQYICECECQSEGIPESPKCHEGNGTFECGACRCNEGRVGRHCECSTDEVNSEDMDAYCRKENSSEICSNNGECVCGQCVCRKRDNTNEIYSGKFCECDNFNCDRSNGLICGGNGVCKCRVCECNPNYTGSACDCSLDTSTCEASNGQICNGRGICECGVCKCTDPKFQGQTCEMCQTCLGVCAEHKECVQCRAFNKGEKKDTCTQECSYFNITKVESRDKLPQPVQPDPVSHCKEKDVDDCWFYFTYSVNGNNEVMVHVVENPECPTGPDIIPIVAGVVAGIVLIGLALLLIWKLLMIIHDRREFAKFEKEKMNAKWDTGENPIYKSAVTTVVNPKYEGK
T1 sequence (P13612 34-1032): as the sequence (P13612 34-1032) above
T1 sequence (P05556 21-798): as the sequence (P05556 21-798) above

Row | melting point | IC50 [1] [nM] | IC50 [2] [nM] | Compound
1 | 118 to 121 °C | ≤ 250 | ≤ 50 | CCOC(=O)N1CSC[C@@H]1C(=O)N[C@@H](Cc1ccc(NC(=O)c2c(Cl)cccc2Cl)cc1)C(=O)O (relative stereo) [Example 12, [S-(R*,R*)]-4-[[[1-Carboxy-2-[4-[(2,6-dichlorobenzoyl)amino]phenyl]ethyl]amino]carbonyl]-3-thiazolidinecarboxylic Acid 3-Ethyl Ester]
2 | 138 to 140 °C | ≤ 250 | ≤ 50 | COC(=O)[C@H](Cc1ccc(OCc2c(Cl)cccc2Cl)cc1)NC(=O)[C@H]1CSCN1C(=O)OCCN1CCOCC1 (relative stereo) [Example 36, [S-(R*,R*)]-4-[[[1-[4-[(2,6-Dichlorophenyl)methoxy]phenyl]methyl]-2-methoxy-2-oxoethyl]amino]carbonyl]-3-thiazolidinecarboxylic Acid 3-[2-(4-Morpholinyl)ethyl]ester]
3 | 123 to 125 °C | ≥ 1000 | ≥ 750 | COC(=O)[C@H](Cc1ccc(OCc2c(Cl)cccc2Cl)cc1)NC(=O)[C@H]1CSCN1C(=O)OCc1ccccn1 (relative stereo) [Example 38, [S-(R*,R*)]-4-[[[1-[4-[(2,6-Dichlorophenyl)methoxy]phenyl]methyl]-2-methoxy-2-oxoethyl]amino]carbonyl]-3-thiazolidinecarboxylic Acid 3-[(2-Pyridinyl)methyl]ester]
4 | 80 to 90 °C (dec.) | ≥ 1000 | 50 to 750 | COC(=O)[C@H](Cc1ccc(NC(=O)c2c(Cl)cccc2Cl)cc1)NC(=O)[C@H]1CSCN1C(=O)N(C)CCc1ccccn1 [Example 54, 4-[(2,6-Dichlorobenzoyl)amino]-N-[[(4S)-3-[[methyl[2-(2-pyridinyl)ethyl]amino]carbonyl]-4-thiazoidinyl]carbonyl]-L-phenylalanine Methyl Ester]
5 | 223 to 225 °C | ≥ 1000 | 50 to 750 | COC(=O)[C@H](Cc1ccc(NC(=O)c2c(Cl)cccc2Cl)cc1)NC(=O)[C@H]1CSCN1C(=O)N1CCOCC1 [Example 56, 4-[(2,6-Dichlorobenzoyl)amino]-N-[[(4S)-3-(4-morpholinylcarbonyl)-4-thiazolidinyl]carbonyl]-L-phenylalanine Methyl Ester]
6 | 105 to 107 °C | ≥ 1000 | ≥ 750 | COC(=O)[C@H](Cc1ccc(NC(=O)c2c(Cl)cccc2Cl)cc1)NC(=O)[C@H]1CSCN1C(=O)N(CCO)CCO [Example 57, N-[[(4S)-3-[[bis(2-Hydroxyethyl)amino]carbonyl]-4-thiazolidinyl]carbonyl]-4-[(2,6-dichlorobenzoyl)amino]-L-phenylalanine Methyl Ester]
7 |  | ≤ 250 | ≤ 50 | O=C(O)c1cccc(C(=O)N2CSC[C@@H]2C(=O)N[C@@H](Cc2ccc(NC(=O)c3c(Cl)cccc3Cl)cc2)C(=O)O)n1 [Example 264]
8 |  | ≤ 250 | ≤ 50 | O=C(Nc1ccc(C[C@H](NC(=O)[C@H]2CSCN2C(=O)c2cccnc2)C(=O)O)cc1)c1c(Cl)cccc1Cl [Example 265]
9 |  | ≤ 250 | ≤ 50 | O=C(Nc1ccc(C[C@H](NC(=O)[C@H]2CSCN2C(=O)C2CCCO2)C(=O)O)cc1)c1c(Cl)cccc1Cl (stereo partly shown) [Example 266]
10 |  | ≥ 1000 | 50 to 750 | O=C(O)CCC(=O)N1CCSCCC1C(=O)N[C@@H](Cc1ccc(NC(=O)c2c(Cl)cccc2Cl)cc1)C(=O)O (stereo partly drawn) [Example 267, 5-[[[(1S)-1-Carboxy-2-[4-[(2,6-dichlorobenzoyl)amino]phenyl]ethyl]amino]carbonyl]-tetrahydro-γ-oxo-1,4-thiazepine-4(5H)-butanoic Acid]

Second part, the compound before the results:

Row | Compound | melting point | IC50 [1] [nM] | IC50 [2] [nM]
11 | C[C@@H](c1ccccc1)N1[C@H](C(=O)O)C[C@H]1C(=O)N[C@@H](Cc1ccc(NC(=O)c2c(Cl)cccc2Cl)cc1)C(=O)O (as salt: salt) [Example 129, [2S-[1(R*),2α,4β(R*)]]-4-[[[1-Carboxy-2-[4-[(2,6-dichlorobenzoyl)amino]phenyl]ethyl]-amino]carbonyl]-1-(1-phenylethyl)-2-azetidinecarboxylic Acid Dilithium Salt] | 270 °C |  | 
12 | COC(=O)[C@H](Cc1ccc(OCc2c(Cl)cccc2Cl)cc1)NC(=O)[C@H]1CSCN1C(=O)OCCN1CCCC1 (relative stereo) [Example 39, [S-(R*,R*)]-4-[[[1-[4-[(2,6-Dichlorophenyl)methoxy]phenyl]methyl]-2-methoxy-2-oxoethyl]amino]carbonyl]-3-thiazolidinecarboxylic Acid 3-[2-(1-Pyrrolidinyl)ethyl]ester] | 130 to 132 °C | ≤ 250 | 50 to 750
13 | CN(CCc1ccccn1)C(=O)N1CSC[C@@H]1C(=O)N[C@@H](Cc1ccc(OCc2c(Cl)cccc2Cl)cc1)C(=O)O (relative stereo) [Example 153, [S-(R*,R*)]-4-[[[1-Carboxy-2-[4-[(2,6-dichlorophenyl)methoxy]phenyl]ethyl]amino]-carbonyl]-N-methyl-N-[2-(2-pyridinyl)ethyl]-3-thiazolidinecarboxamide] | 80 °C | ≥ 1000 | ≥ 750
14 | COC(=O)[C@H](Cc1ccc(OCc2c(Cl)cccc2Cl)cc1)NC(=O)[C@H]1CSCN1C(=O)OC1CCOC1 (relative stereo) [Example 156, [S-(R*,R*)]-4-[[[1-[[4-[(2,6-Dichlorophenyl)methoxy]phenyl]methyl]-2-methoxy-2-oxoethyl]amino]carbonyl]-3-thiazolidinecarboxylic Acid 3-(3-Tetrahydrofuranyl)ester] | 125 to 126.5 °C | ≥ 1000 | 50 to 750
15 | CCOC(=O)N1[C@@H](C(=O)N[C@@H](Cc2ccc(NC(=O)c3c(Cl)cccc3Cl)cc2)C(=O)OC)C[C@@H]1C(=O)OC [Example 140, [2R-(2α,4β(S*)]-4-[[[1-[[4-[(2,6-Dichlorobenzoyl)amino]phenyl]methyl]-2-methoxy-2-oxoethyl]amino]carbonyl]-1,2-azetidinedicarboxylic Acid 1-Ethyl-2-methyl Diester] | 97 to 99 °C | ≥ 1000 | ≥ 750
16 | COC(=O)[C@H](Cc1ccc(NC(=O)c2c(Cl)cccc2Cl)cc1)NC(=O)[C@@H]1CCN1C(=O)OC(C)(C)C [Example 142, [2S-(R*,R*)]-2-[[[1-[4-[(2,6-Dichlorobenzoyl)amino]phenylmethyl]-2-methoxy-2-oxoethyl]amino]carbonyl]-1-azetidinecarboxylic Acid 1-(1,1-Dimethyl)ethyl Ester] | 106 to 108 °C | ≥ 1000 | ≥ 750
17 | [2R-[1(R*),2α,4β(S*)]]-4-[[[1-Carboxy-2-[4-[(2,6-dichlorobenzoyl)amino]phenyl]-ethyl]-amino]carbonyl]-1-(1-phenylethyl)-2-azetidinecarboxylic Acid Dilithium Salt [Example 135] |  | 250 to 1000 | 50 to 750
18 | [S]-3-[[[1-[[4-[(2,6-Dichlorobenzoyl)amino]phenyl]methyl]-2-methoxy-2-oxoethyl]amino]-carbonyl]-1-azetidinecarboxylic Acid 1-(1,1-Dimethyl)ethyl Ester [Example 145] |  | ≥ 1000 | ≥ 750

— patent US6685617B1, “Inhibitors of α4β1 mediated cell adhesion” (Pharmacia & Upjohn Company, priority 1998, dated 2004)
